Results: patent publication US12642784B2, “ANAVEX2-73 for the treatment of genetic neurodevelopmental disorders” (ANAVEX LIFE SCIENCES CORP., priority 2019, dated 2026)

Experiments:
[1] = tested on: glutamate and GABA biomarkers; assay: Example 5: plasma glutamate and GABA biomarkers; assay type: in vivo, human; details: Week 0 vs. Week 7; Wilcoxon Z=−1.992, p (2-tailed)=0.046
Source text: In one aspect, the method further comprises measuring, or having measured or obtained a baseline plasma glutamate and/or gamma aminobutyric acid (GABA) level in the subject prior to treatment with ANAVEX2-73 as described herein, and measuring or having measured or obtained at least a second plasma glutamate and/or gamma aminobutyric acid (GABA) level following a period of treatment with ANAVEX2-73 as described herein. Measurement of a plasma glutamate and/or gamma aminobutyric acid (GABA) level comprises withdrawing a whole blood sample from the subject, separating the blood plasma from remaining whole blood components such as by centrifuging the sample, isolating the blood plasma, and measuring the amount of glutamate and/or gamma aminobutyric acid (GABA) in the blood plasma using any one of several techniques known in the art. […]
(§1) For efficacy, the following parameters were measured in the female subjects: Rett Syndrome Behavior Questionnaire (RSBQ), Clinical Global Impressions (CGI-I), hand behaviors (RSBQ), breathing problems (RSBQ), waking during sleep (RSBQ), and glutamate biomarker, and GABA biomarkers.
(§2) Evaluation of the efficacy was measured as a comparison from baseline (week 0), week 4, and to end of treatment (week 7). Blood plasma samples were analyzed at week 0 and at week 7 to measure the levels of glutamate and GABA biomarkers. […]

[2] = tested on: subject, diagnosed with Rett Syndrome; assay: Example 6: liquid formulation in a subject with Rett Syndrome; assay type: in vivo, human; details: 1 mL of liquid formulation (0.2 mg/mL)
Method: A subject, diagnosed with Rett Syndrome is administered 1 mL of a liquid formulation (0.2 mg/mL).

[3] = tested on: female subjects diagnosed with Rett Syndrome; assay: Example 5: 7-week treatment of Rett Syndrome subjects, RSBQ and CGI-I; assay type: in vivo, human
Source text: One useful measure of improvement for one or more symptoms of a genetic neurodevelopmental disorder may be determined using a behavioral questionnaire that interrogates a primary caregiver of a subject at multiple time points during a course of treatment, regarding multiple behavioral indicators of the disorder. For example, a Rett Syndrome Behavior Questionnaire (RSBQ) may comprise multiple, e.g., at least five but optionally 10 or more, such as 12, 15, 20, 25, 30, 35, 40, 45 or 50 or more behavioral indicators which ask for a caregiver's observations of the subject regarding the frequency of specific episodes or occurrences of each indicator. […]
Another useful measurement for one or more symptoms of a genetic neurodevelopmental disorder is a Clinical Global Impression-Improvement scale (CGI-I). This scale measures the improvement or worsening of the subject's condition relative to a baseline state before administration of the dosage form comprising a therapeutically acceptable amount of ANAVEX2-73, as assessed by one or more healthcare professionals. […]
as §1, §2

[4] = tested on: subject diagnosed with Rett Syndrome; assay: Example 1: daily liquid formulation in a subject with Rett Syndrome, follow-up questionnaire; assay type: in vivo, human; details: 5 mL of 0.2 mg/mL liquid formulation daily, total daily dose 1 mg
Method: A subject diagnosed with Rett Syndrome was daily administered 5 mL of a liquid formulation containing A2-73 at a concentration of 0.2 mg/mL, for a total daily dose of 1 mg of […]2-73.

healthy male volunteers = details: cited from earlier work
[5] = assay type: physicochemical
Source text: Dosage formulations used in the disclosed methods comprise a therapeutically effective amount of ANAVEX2-73, the crystalline HCl salt of tetrahydro-N,N-dimethyl-2,2-diphenyl-3-furanmethanamine, or tetrahydro-N,N-dimethyl-2,2-diphenyl-3-furanmethanamine hydrochloride (IUPAC name: 1-(2,2-diphenyloxolan-3-yl)-N,N-dimethylmethanamine hydrochloride). […] Thus ANAVEX2-73 (used herein to refer to the HCl salt or the free base) is highly amenable to incorporation in the dosage formulations disclosed herein. For example, ANAVEX2-73 as either the HCl salt or the free base has a relatively low molecular weight (<400 Da), and is thus well suited for transmucosal or transdermal delivery, or rapid oral delivery. ANAVEX2-73 has a pKa around 8-9, which also makes it well-suited for transmucosal delivery. Therapeutically effective doses of ANAVEX2-73 are well suited for various thin film formulations, including oral and transdermal thin film formulations.

[6] = single oral dose, healthy male volunteers

| Compound | levels of glutamate biomarker in plasma [1] | CGI-I index [2] | Rett Syndrome Behavior Questionnaire (RSBQ) [2] | improvement in the RSBQ ([3]; all six subjects, week 0 to week 7, Wilcoxon Z=−2.207, p (2-tailed)=0.027) | RSBQ and CGI-I after 7 weeks ([3]; correlated, p=0.003) | parameters measured (FIG. 1, FIG. 2A-D, FIG. 3A-E) ([3]; orally administered liquid formulation, 7 weeks) | motor skills and cognition according to follow-up questionnaire [4] | serious adverse events (healthy male volunteers; single ascending oral dose, 22 healthy male volunteers) | maximum tolerable dose (MTD) (healthy male volunteers; [6]) [mg] | minimum intolerable dose (MID) (healthy male volunteers; [6]) [mg] | solubility in organic solvents [5] |
| --- | --- | --- | --- | --- | --- | --- | --- | --- | --- | --- | --- |
| CN(C)CC1CCOC1(c1ccccc1)c1ccccc1.Cl (centres unmarked) [ANAVEX2-73, tetrahydro-N,N-dimethyl-2,2-diphenyl-3-furanmethanamine hydrochloride] | decreased significantly | improvement | improvement | over 30% | reduction | vast improvement | improvement | No serious adverse events | 55 | 60 | – |
| CN(C)CC1CCOC1(c1ccccc1)c1ccccc1 (centres unmarked) [free base form of ANAVEX2-73, tetrahydro-N,N-dimethyl-2,2-diphenyl-3-furanmethanamine] | – | – | – | – | – | – | – | – | – | – | soluble in almost all organic solvents |
